What was measured:
[1] = molecular target: CXCR2 (Homo sapiens (Human), UniProt P25025); assay: PathHunter CXCR2 β-arrestin cell assay, antagonism of CXCL8 (EC80); assay type: cell-based; details: PathHunter CXCR2 β-arrestin cells, CXCL8 agonist at EC80
Method: The IC50 values were determined to evaluate the antagonistic activity of the test compounds against CXCR2.
PathHunter® CXCR2 β-arrestin cells (DiscoverX) were grown under normal conditions and seeded on a white-walled 384-microwell plate at 20 μL/well. Before testing, the cells were incubated at 37° C. for an appropriate time. The test compounds were serially diluted in DMSO at a three-fold dilution factor to obtain 8 serially diluted test compounds. Shortly before the test, the above serially diluted test compounds were further diluted with test buffer to 5 times the test concentration. 5 μL of the further diluted test compounds was added to the cells and then the cells were incubated at 37° C. for 30 minutes. The vehicle concentration was 1%. 5 μL of 6×EC80 agonist (CXCL8) buffer was added to the cells and then the cells were incubated at 37° C. for 90 minutes. 15 μL (50% v/v) of PathHunter detection reagent mixture was added in one portion, followed by one-hour incubation to generate the test signal. The microplates were read on a PerkinElmer Envision™ instrument for chemiluminescence signal. The biological activity of the test compounds was analyzed by CBIS data analysis suite (ChemInnovation, CA) and shown as IC50 values.

[2] = Pharmacokinetic evaluation in C57BL/6 mice; assay type: in vivo; details: male, mouse, plasma; for clearance / half-life / AUC: intravenous 1 mpk / gavage 5 mpk study; for half-life: read-out: Half-life T1/2 (converted); for AUC: route not stated, unit printed shifted under first column, read-out: Area under the drug concentration time curve (AUC); for bioavailability: po, 5 mg/kg, gavage 5 mpk vs intravenous 1 mpk, read-out: Bioavailability (F)
Method: The pharmacokinetic parameters of the compounds in C57BL/6 mice were investigated.
C57BL/6 mice (male, 18-30 g, 7-9 weeks old, Shanghai Lingchang Biotechnology Co., Ltd.)
Formulations containing an aqueous solution of 1% DMSO/10% hydroxypropyl-β-cyclodextrin as the vehicle were administered by intravenous injection (1 mpk), formulations containing an aqueous solution of 1% DMSO/1% hydroxypropyl methylcellulose/0.2% Tween 80 as the vehicle were administered by gavage (5 mpk). Before the animal experiment, all animals were fasted, and fed 4 hours after administration; all animals were free to drink water. The time points of blood collection: intravenous injection administration group: 0.083, 0.25, 0.5, 1, 2, 4, 6, 8 and 24 hours; gavage administration group: 0.25, 0.5, 1, 2, 4, 6, 8 and 24 hours.
(§1) Whole blood samples (0.03 mL) were collected through the saphenous vein (or other suitable blood collection sites) at the prescribed time points, and all blood samples were added to labeled plastic centrifuge tubes containing K2-EDTA anticoagulant. After the blood samples were collected, the plasma was isolated by centrifugation, immediately placed in dry ice and stored at low temperature. All samples were analyzed by LC-MS/MS with a minimum detection limit of 2 nM. The non-compartmental model of WinNonlin™ Version 6.3 (Pharsight, Mountain View, Calif.) pharmacokinetic software was used to process the mean plasma concentration, and the linear-log trapezoid method was used to calculate the pharmacokinetic parameters.

[3] = Pharmacokinetic and tissue distribution in Lewis rats; assay type: in vivo; details: male, rat, lung / plasma, oral, 5 mg/kg, gavage 5 mpk, read-out: Ratio in lung blood
Method: The pharmacokinetic and tissue distribution of the compounds in Lewis rats was tested.
Lewis rats (male, 202-239 g, 7-9 weeks old, Beijing Viton Lihua)
Formulations containing an aqueous solution of 1% hydroxypropyl methylcellulose/0.2% Tween 80 as the vehicle were administered by gavage (5 mpk). Before the animal experiment, all animals were fasted overnight, and fed 4 hours after administration; all animals were free to drink water. The time points of blood collection: danirixin administration group: 0.25, 1, 8 hours; gavage administration group: 0.5, 1, 4 hours.
as §1, with “(0.2” for “(0.03”, “separated” for “isolated”, “log-linear” for “linear-log”

CXCR2, sequence (P25025 whole entry): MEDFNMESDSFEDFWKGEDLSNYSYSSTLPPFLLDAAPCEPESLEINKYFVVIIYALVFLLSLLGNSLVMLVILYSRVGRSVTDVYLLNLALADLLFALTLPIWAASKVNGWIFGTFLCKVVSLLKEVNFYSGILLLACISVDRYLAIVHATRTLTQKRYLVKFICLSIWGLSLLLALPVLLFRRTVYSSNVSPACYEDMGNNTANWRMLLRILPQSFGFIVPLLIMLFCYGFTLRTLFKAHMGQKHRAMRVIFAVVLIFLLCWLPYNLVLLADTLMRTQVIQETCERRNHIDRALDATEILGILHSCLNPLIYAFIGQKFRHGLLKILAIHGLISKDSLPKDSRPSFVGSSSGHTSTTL

Structure (SMILES)	IC50 [1] [nM]	other results
O=C(Nc1ccc(Cl)c(S(=O)(=O)[C@H]2CCCNC2)c1O)NC1CCCc2occc21 (single isomer, unassigned) [WX001A]	152	–
O=C(Nc1ccc(Cl)c(S(=O)(=O)CCNC(=O)C2CC2)c1O)NC1CCCc2ccoc21 (single isomer, unassigned) [WX016A]	134	–
COC(=O)NCCS(=O)(=O)c1c(Cl)ccc(NC(=O)NC2CCCc3ccoc32)c1O (single isomer, unassigned) [WX017A]	72	–
O=C(CS(=O)(=O)c1c(Cl)ccc(NC(=O)NC2CCCc3ccoc32)c1O)NCC(F)(F)F (single isomer, unassigned) [WX018A]	133	–
CC(C)(Cc1ccccc1)S(=O)(=O)c1c(Cl)ccc(NC(=O)N[C@H]2CCCc3ccoc32)c1O (single isomer, unassigned) [WX020A]	177	–
O=C(Nc1ccc(Cl)c(S(=O)(=O)C2CC3(CNC3)C2)c1O)NC1CCCc2ccoc21 (single isomer, unassigned) [WX021A]	720	–
O=C(Nc1ccc(Cl)c(S(=O)(=O)C2CC3(CCNCC3)C2)c1O)N[C@H]1CCCc2ccoc21 (single isomer, unassigned) [WX022A]	366	–
O=C(Nc1ccc(Cl)c(S(=O)(=O)C2CCCNC2)c1O)NC1CCCc2sccc21 (single isomer, unassigned) [WX024A]	525	–
O=C(Nc1ccc(Cl)c(S(=O)(=O)C2CCCNC2)c1O)NC1CCCc2sccc21 (single isomer, unassigned) [WX024B]	667	–
O=C(Nc1ccc(Cl)c(S(=O)(=O)C2CC2)c1O)N[C@@H]1CCCc2sccc21 (single isomer, unassigned) [WX025B]	139	–
O=C(Nc1ccc(Cl)c(S(=O)(=O)C2CC2)c1O)N[C@H]1CCCc2ccsc21 (single isomer, unassigned) [WX027A]	269	–
Cc1cc2c(o1)C(NC(=O)Nc1ccc(Cl)c(S(=O)(=O)[C@H]3CCCNC3)c1O)CCC2 (single isomer, unassigned) [WX029B]	245	–
CS(=O)(=O)c1c(Cl)ccc(NC(=O)N[C@H]2CCCc3ccoc32)c1O [WX008A]	122	–
O=C(Nc1ccc(Cl)c(S(=O)(=O)C2CCC2)c1O)NC1CCCc2ccoc21 (stereo not shown) [WX009]	177	–
O=C(Nc1ccc(Cl)c(S(=O)(=O)CCN2C(=O)c3ccccc3C2=O)c1O)NC1CCCc2ccoc21 (stereo not shown) [WX014]	232	–
NCCS(=O)(=O)c1c(Cl)ccc(NC(=O)NC2CCCc3ccoc32)c1O (stereo not shown) [WX015]	186	–
O=C(Nc1ccc(Cl)c(S(=O)(=O)C2CC2)c1O)NC1CCCc2ncsc21 (stereo not shown) [WX028]	472	–
O=C(Nc1ccc(Cl)c(S(=O)(=O)C2CC2)c1O)NC1CCCc2cc(C(F)(F)F)oc21 (stereo not shown) [WX032]	144	–

Further compounds by falling IC50 [1], results first:

IC50 [1] [nM]	Structure (SMILES)	other results
70	O=C(Nc1ccc(Cl)c(S(=O)(=O)C2CCCCC2)c1O)N[C@H]1CCCc2ccoc21 [WX011A]	–
61	O=C(Nc1ccc(Cl)c(S(=O)(=O)C2CCCC2)c1O)N[C@H]1CCCc2ccoc21 [WX010A]	–
55	CC(C)S(=O)(=O)c1c(Cl)ccc(NC(=O)NC2CCCc3cc(C(F)(F)F)oc32)c1O (stereo not shown) [WX034]	–
45	CC(C)S(=O)(=O)c1c(Cl)ccc(NC(=O)NC2CCCc3occc32)c1O (single isomer, unassigned) [WX002A]	–
43	CC(C)(C)OC(=O)N1CCC[C@H](S(=O)(=O)c2c(Cl)ccc(NC(=O)NC3CCCc4ccoc43)c2O)C1 (single isomer, unassigned) [WX004A]	–
42	CCS(=O)(=O)c1c(Cl)ccc(NC(=O)NC2CCCc3ccoc32)c1O (single isomer, unassigned) [WX007A]	–
36	O=C(Nc1ccc(Cl)c(S(=O)(=O)C2CCNCC2)c1O)N[C@H]1CCCc2ccoc21 (single isomer, unassigned) [WX023A]	–
23	CC1(C)NCCCC1S(=O)(=O)c1c(Cl)ccc(NC(=O)NC2CCCc3ccoc32)c1O (stereo not shown) [WX036]	–
22	O=C(Nc1ccc(Cl)c(S(=O)(=O)C2CC2)c1O)NC1CCCc2ccoc21 (single isomer, unassigned) [WX006A]	clearance [2]: 8.3 mL/min/kg; half-life [2]: 3.09 h; AUC [2]: 20.1 µM·h; bioavailability [2]: 83.8%
22	O=C(Nc1ccc(Cl)c(S(=O)(=O)[C@H]2CCCNC2)c1O)NC1CCCc2cc(C(F)(F)F)oc21 (single isomer, unassigned) [WX030B]	Kp [3]: 2.17
17	CC(C)S(=O)(=O)c1c(Cl)ccc(NC(=O)N[C@H]2CCCc3ccoc32)c1O [WX003A]	clearance [2]: 11.2 mL/min/kg; half-life [2]: 2.22 h; AUC [2]: 12.7 µM·h; bioavailability [2]: 70.3%
17	O=C(Nc1ccc(Cl)c(S(=O)(=O)CC(F)(F)F)c1O)N[C@H]1CCCc2ccoc21 [WX012A]	clearance [2]: 15.8 mL/min/kg; half-life [2]: 0.94 h; AUC [2]: 9.39 µM·h; bioavailability [2]: 82.5%
15	Cc1cc2c(o1)C(NC(=O)Nc1ccc(Cl)c(S(=O)(=O)[C@H]3CCCNC3)c1O)CCC2 (stereo partly shown) [WX029]	–
14	CC(C)(C)S(=O)(=O)c1c(Cl)ccc(NC(=O)NC2CCCc3ccoc32)c1O (single isomer, unassigned) [WX005A]	–
14	O=C(Nc1ccc(Cl)c(S(=O)(=O)[C@H]2CCCNC2)c1O)NC1CCCc2ccoc21 (single isomer, unassigned) [WX013A]	clearance [2]: 30.8 mL/min/kg; half-life [2]: 2.21 h; AUC [2]: 4.44 µM·h; bioavailability [2]: 75.5%
6	Cc1cc2c(o1)C(NC(=O)Nc1ccc(Cl)c(S(=O)(=O)C3CC3)c1O)CCC2 (stereo not shown) [WX033]	–
2	Cc1cc2c(o1)C(NC(=O)Nc1ccc(Cl)c(S(=O)(=O)[C@H]3CCCNC3)c1O)CCC2 (single isomer, unassigned) [WX029A]	–
